Measurements published in publication PMC6199744, “Development of Chemical Proteomics for the Folateome and Analysis of the Kinetoplastid Folateome” (ACS Infectious Diseases, 2018).
Where two headings read alike, the source gives them in different places.

Key:
Type in all cases: binding
[1] = target: T1, HeLa cell extract proteins (Homo sapiens, UniProt P35680)
T1 construct: endogenous in cells; host or cells: HeLa cell extract

[2] = target: T2, HeLa cell extract proteins (Homo sapiens, UniProt P78371)
T2 construct: endogenous in cells; host or cells: HeLa cell extract
T2 sequence (P78371 1-535): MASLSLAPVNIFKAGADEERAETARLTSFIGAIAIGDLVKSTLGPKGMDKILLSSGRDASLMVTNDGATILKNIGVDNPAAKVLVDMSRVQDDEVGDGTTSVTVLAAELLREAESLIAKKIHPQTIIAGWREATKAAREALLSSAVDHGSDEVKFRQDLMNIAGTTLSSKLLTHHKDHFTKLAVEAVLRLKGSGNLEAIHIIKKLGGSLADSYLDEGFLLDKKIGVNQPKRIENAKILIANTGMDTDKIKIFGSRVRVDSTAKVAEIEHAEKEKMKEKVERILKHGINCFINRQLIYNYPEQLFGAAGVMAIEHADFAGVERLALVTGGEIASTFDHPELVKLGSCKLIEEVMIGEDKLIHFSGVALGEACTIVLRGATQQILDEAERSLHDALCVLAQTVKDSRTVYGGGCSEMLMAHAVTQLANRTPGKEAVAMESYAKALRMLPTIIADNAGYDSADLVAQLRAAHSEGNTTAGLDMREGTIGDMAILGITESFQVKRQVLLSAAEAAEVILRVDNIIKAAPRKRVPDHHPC

[3] = target: T3, HeLa cell extract proteins (Homo sapiens, UniProt Q14697)
T3 construct: endogenous in cells; host or cells: HeLa cell extract
T3 sequence (Q14697 29-944): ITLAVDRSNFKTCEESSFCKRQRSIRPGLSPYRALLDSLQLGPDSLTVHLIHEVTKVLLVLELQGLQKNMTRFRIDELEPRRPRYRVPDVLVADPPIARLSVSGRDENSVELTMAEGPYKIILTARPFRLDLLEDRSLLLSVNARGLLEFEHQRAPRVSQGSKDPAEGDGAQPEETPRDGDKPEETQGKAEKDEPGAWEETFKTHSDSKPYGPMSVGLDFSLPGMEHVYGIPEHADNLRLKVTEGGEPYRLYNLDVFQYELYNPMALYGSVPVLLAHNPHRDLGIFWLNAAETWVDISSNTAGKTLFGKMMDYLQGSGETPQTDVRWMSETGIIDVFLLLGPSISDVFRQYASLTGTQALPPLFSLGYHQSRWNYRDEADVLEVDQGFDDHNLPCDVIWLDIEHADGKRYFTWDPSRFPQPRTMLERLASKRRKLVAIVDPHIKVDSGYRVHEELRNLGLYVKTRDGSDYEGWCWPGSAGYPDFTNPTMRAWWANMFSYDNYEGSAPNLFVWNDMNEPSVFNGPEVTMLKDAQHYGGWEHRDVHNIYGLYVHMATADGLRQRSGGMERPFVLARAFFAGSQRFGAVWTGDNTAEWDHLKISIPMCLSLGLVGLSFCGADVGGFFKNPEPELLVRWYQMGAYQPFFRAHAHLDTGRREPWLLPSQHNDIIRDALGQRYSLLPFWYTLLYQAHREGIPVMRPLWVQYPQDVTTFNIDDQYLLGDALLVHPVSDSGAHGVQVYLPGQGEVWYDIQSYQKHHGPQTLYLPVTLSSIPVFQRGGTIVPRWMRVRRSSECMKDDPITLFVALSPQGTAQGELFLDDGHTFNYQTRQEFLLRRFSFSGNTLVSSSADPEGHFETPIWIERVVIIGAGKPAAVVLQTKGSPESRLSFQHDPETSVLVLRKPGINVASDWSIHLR

[4] = target: T4, HeLa cell extract proteins (Homo sapiens, UniProt Q8NBE8)
T4 construct: endogenous in cells; host or cells: HeLa cell extract
T4 sequence (Q8NBE8 1-558): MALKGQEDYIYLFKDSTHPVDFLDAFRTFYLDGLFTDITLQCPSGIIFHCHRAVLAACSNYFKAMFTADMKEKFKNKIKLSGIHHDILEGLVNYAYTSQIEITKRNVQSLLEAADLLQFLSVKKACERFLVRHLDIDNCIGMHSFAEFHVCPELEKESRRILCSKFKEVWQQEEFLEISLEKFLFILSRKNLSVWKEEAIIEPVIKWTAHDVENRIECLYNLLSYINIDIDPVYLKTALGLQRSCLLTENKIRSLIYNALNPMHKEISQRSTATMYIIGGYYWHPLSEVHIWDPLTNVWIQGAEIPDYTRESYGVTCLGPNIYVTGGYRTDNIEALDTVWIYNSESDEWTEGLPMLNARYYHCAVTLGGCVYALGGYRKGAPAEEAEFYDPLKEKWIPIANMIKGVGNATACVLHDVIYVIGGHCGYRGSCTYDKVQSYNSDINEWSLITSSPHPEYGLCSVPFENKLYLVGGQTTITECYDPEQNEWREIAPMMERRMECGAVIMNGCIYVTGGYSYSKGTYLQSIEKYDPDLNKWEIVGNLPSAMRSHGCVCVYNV

[5] = target: T5, HeLa cell extract proteins (Homo sapiens, UniProt Q96DE0)
T5 construct: endogenous in cells; host or cells: HeLa cell extract
T5 sequence (Q96DE0 whole entry): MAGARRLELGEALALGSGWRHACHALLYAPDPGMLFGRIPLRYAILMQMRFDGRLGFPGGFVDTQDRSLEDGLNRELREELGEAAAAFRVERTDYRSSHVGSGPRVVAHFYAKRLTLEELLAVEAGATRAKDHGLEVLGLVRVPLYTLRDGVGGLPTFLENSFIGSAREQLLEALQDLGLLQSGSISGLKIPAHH

[6] = target: T6, HeLa cell extract proteins (Homo sapiens, UniProt Q9H479)
T6 construct: endogenous in cells; host or cells: HeLa cell extract
T6 sequence (Q9H479 1-309): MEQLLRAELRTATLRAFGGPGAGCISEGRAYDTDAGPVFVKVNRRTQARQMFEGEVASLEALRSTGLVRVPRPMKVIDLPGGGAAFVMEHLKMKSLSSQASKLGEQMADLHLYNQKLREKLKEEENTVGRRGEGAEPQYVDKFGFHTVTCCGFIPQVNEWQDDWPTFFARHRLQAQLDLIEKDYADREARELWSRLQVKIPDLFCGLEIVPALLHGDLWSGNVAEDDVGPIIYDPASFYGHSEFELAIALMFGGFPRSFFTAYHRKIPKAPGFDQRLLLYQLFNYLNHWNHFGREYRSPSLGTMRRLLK

[7] = HeLa, protein FN3K (FRUCTOSAMINE-3-KINASE)

T1 sequence (P35680 whole entry): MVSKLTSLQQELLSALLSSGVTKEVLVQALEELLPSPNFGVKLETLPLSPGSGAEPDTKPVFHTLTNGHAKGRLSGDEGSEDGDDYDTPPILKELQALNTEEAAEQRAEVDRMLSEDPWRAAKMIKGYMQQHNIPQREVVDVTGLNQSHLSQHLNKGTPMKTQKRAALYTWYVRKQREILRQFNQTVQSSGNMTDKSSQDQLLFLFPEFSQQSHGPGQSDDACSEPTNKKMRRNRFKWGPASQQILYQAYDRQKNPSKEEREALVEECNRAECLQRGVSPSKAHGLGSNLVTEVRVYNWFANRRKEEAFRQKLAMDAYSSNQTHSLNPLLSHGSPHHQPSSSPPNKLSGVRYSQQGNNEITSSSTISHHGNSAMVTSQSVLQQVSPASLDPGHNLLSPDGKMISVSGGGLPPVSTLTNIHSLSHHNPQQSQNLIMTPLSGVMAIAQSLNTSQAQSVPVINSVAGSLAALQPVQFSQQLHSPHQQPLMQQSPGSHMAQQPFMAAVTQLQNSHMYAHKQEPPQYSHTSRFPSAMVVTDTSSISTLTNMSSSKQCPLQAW

Nc1nc2c(c(=O)[nH]1)N(C=O)C(CNc1ccc(C(=O)N[C@@H](CCC(=O)O)C(=O)O)cc1)CN2 (stereo partly drawn) [LEU, leucovorin]
fold changes relative to vehicle control ([1]; HeLa, protein HNF1B): 0.87
fold changes relative to vehicle control ([2]; HeLa, protein CCT2): 1.05
fold changes relative to vehicle control ([3]; HeLa, protein GANAB): 0.99
fold changes relative to vehicle control ([4]; HeLa, protein KLHL23): 0.91
fold changes relative to vehicle control ([5]; HeLa, captured protein NUDT16): 0.93
fold changes relative to vehicle control [6, 7]: 0.93

NCCCNc1ccc(C(=O)NC(CCC(=O)O)C(=O)O)cc1 (stereo not drawn) [compound 7]
fold changes relative to vehicle control ([1]; HeLa, protein HNF1B): 1.07
fold changes relative to vehicle control ([2]; HeLa, protein CCT2): 0.95
fold changes relative to vehicle control ([3]; HeLa, protein GANAB): 0.97
fold changes relative to vehicle control ([4]; HeLa, protein KLHL23): 0.83
fold changes relative to vehicle control ([5]; HeLa, captured protein NUDT16): 1.02
fold changes relative to vehicle control [6, 7]: 0.99

CCCCCCOc1cccc(Cc2cnc(N)nc2N)c1 [compound 2]
fold changes relative to vehicle control ([1]; captured protein HNF1B, HeLa): 1.01
fold changes relative to vehicle control ([2]; protein CCT2, HeLa): 1.75
fold changes relative to vehicle control ([3]; protein GANAB, HeLa): 1.28
fold changes relative to vehicle control ([4]; protein KLHL23, HeLa): 0.94
fold changes relative to vehicle control ([5]; captured protein NUDT16, HeLa): 0.93
fold changes relative to vehicle control ([6]; protein FN3K, HeLa): 1.06

CCCCCCOc1ccc(Cc2cnc(N)nc2N)cc1 [compound 1]
fold changes relative to vehicle control ([1]; captured protein HNF1B, HeLa): 0.64
fold changes relative to vehicle control ([2]; protein CCT2, HeLa): 1.33
fold changes relative to vehicle control ([3]; protein GANAB, HeLa): 1.08
fold changes relative to vehicle control ([4]; protein KLHL23, HeLa): 0.87
fold changes relative to vehicle control ([5]; captured protein NUDT16, HeLa): 0.62
fold changes relative to vehicle control ([6]; protein FN3K, HeLa): 0.92

Nc1nc2cccc(-c3ccccc3)c2n1Cc1ccc(Cl)c(Cl)c1 [compound 3]
fold changes relative to vehicle control ([1]; captured protein HNF1B, HeLa): 1
fold changes relative to vehicle control ([2]; protein CCT2, HeLa): 1.13
fold changes relative to vehicle control ([3]; protein GANAB, HeLa): 0.94
fold changes relative to vehicle control ([4]; protein KLHL23, HeLa): 0.92
fold changes relative to vehicle control ([5]; captured protein NUDT16, HeLa): 1.02
fold changes relative to vehicle control ([6]; protein FN3K, HeLa): 1.09

NCCOCCOCC(=O)Nc1nc2ncc(CNc3ccc(C(=O)NC(CCC(=O)O)C(=O)O)cc3)nc2c(=O)[nH]1 (stereo not drawn) [compound 6]
fold changes relative to vehicle control ([1]; HeLa, protein HNF1B): 0.81
fold changes relative to vehicle control ([2]; HeLa, protein CCT2): 1.23
fold changes relative to vehicle control ([3]; HeLa, protein GANAB): 1.1
fold changes relative to vehicle control ([4]; HeLa, protein KLHL23): 0.8
fold changes relative to vehicle control ([5]; HeLa, captured protein NUDT16): 0.84
fold changes relative to vehicle control [6, 7]: 0.94

Nc1nc2[nH]cc(CCc3ccc(C(=O)N[C@@H](CCC(=O)O)C(=O)O)cc3)c2c(=O)[nH]1 [PTX, pemetrexed]
fold changes relative to vehicle control [1]: 0.82
fold changes relative to vehicle control [2]: 1.11
fold changes relative to vehicle control [3]: 1
fold changes relative to vehicle control [4]: 0.8
fold changes relative to vehicle control [5]: 0.92
fold changes relative to vehicle control [6]: 0.88
